Assays:
[1] = test system: postprandial serum bile acids AUC; experiment: Inhibition of the postprandial rise in SBA, LUM001 compared to cholestyramine; assay type: in vivo, dogs
Description: LUM001 was dissolved in 0.2% Tween 80 at concentrations that required the administration of 0.2 ml dosing solution/kg of body weight at each dose tested. Cholestyramine was suspended in water at concentrations that required the administration of 2.5 ml/kg (500 mg/kg) and 1 ml/kg (200 mg/kg). The appropriate volume of solution formulation for each animal was placed into a gelatin capsule, Torpac Inc., size 13, Batch 594, East Hanover, N.J. and administered per os. Test compounds were administered as single oral doses to groups of dogs, 3 to 9 dogs per group at varying dosages. LUM001 and cholestyramine were administered in solution 30 minutes prior to feeding and blood samples collected at 30-minute intervals for four hours after feeding. LUM001 was given at 0, 0.02, 0.05, 0.2, 0.6, 2, 5 or 15 mg/kg. Cholestyramine was administered at 200 or 500 mg/kg. […] No dog received any one compound dosage more than once. SBA was measured by an enzymatic assay. SBA values are expressed as μg of total bile acids/ml of serum.

[2] = test system: fecal bile acids; experiment: Fecal bile acid excretion, ascending multiple oral doses of LUM001 in healthy adults; assay type: in vivo, human
Description: This Phase 1 study was a randomized, double-blind, placebo-controlled study of ascending multiple oral doses of LUM001 in healthy, adult subjects. This study was conducted at a single center. There were 13 LUM001 dosing panels: 10, 20, 60, 100, and 20 mg every morning (qAM) (2) (i.e., the regimen was tested a second time in the study), 5 mg every evening (qPM), 0.5, 1, 2.5, 5, 2.5 (2), 5 (2), and 0.5 to 5 mg qAM dose titration. Most of the dosing panels included subjects treated with matching placebo. No subject participated in more than 1 dosing panel. Subjects were randomized into the study by dosing panel, and all subjects within a dosing panel received study medication at approximately the same time each day. Safety was reviewed for each panel before subsequent panels were initiated. A total of 167 subjects were treated for 28 days, 147 with LUM001 and 20 with placebo.
During the Pretreatment Screening Period (Days −31 through −4), subjects were seen on an outpatient basis to determine study eligibility based on enrollment criteria. On Day −3, eligible subjects were admitted to the research facility during the morning. Subjects were confined to the research facility from Days −3 to 30. During the entire period of confinement to the research facility, subjects received a study diet composed of 35% of caloric intake from fat, 15% from protein, and 50% from carbohydrates. The total daily caloric intake (based on the subject's weight) was fixed and divided into 3 equicaloric equal-fat-containing meals. The fixed fat composition and caloric content of the diet was designed to reduce inter- and intra-subject variability of serum total bile acids (SBA) and FBA, lipid parameters, and fat absorption parameters.
On Day 1 of the Treatment Period, subjects who qualified for enrollment were randomized in the order in which they were admitted to the research facility. On the same day, subjects began receiving study medication. Subsequent analyses included clinical and laboratory safety assessments and profiles of PK, PD, and lipid parameters. The safety and tolerability of LUM001 were evaluated by physical examination, ascertainment of adverse signs and symptoms, and clinical laboratory studies. Blood and urine samples were obtained for measurement of LUM001 plasma, whole blood, and urine concentrations for subsequent PK analyses. Efficacy responses included measuring FBA as a surrogate marker for the inhibition of intestinal bile acid transport. For the qAM dosing panels, LUM001 or placebo was administered each day of the treatment period (28 days) immediately prior to the morning meal at approximately 08:00 and after any necessary blood work was drawn.
Fecal samples were collected for all panels except the dose-titration panel, 2.5 (2) and 5 mg (2), on Days 9 through 14 and 23 through 28 (data shown in FIG. 6; *p<0.05; **p<0.01 compared to placebo). Twenty-four hour FBA excretions were quantified by Pharmacia for Days 9 through 14 and 23 through 28. Feces were collected in a 24-hour collection container beginning at 08:00 and ending 24 hours later. This procedure was followed on Days 9 through 14 and 23 through 28, with new collection containers issued for each 24-hour period. The weight of each 24-hour fecal collection was recorded on the CRFs. Specimens were stored in 24-hour containers, frozen at approximately −80° C. prior to analysis.
An aliquot for each 24-hour fecal sample collected on Days 23 through 28 was combined, homogenized, and analyzed for bile acid species concentrations by ANAPHARM. The fecal bile acid species evaluated include chenodeoxycholic acid, cholic acid, deoxycholic acid, and lithocholic acid.

[3] = test system: plasma bile acid; experiment: Plasma bile acid concentrations in ZDF rats; assay type: in vivo; details: SC-435 1, 10 or 30 mg/kg; LUM002 0.3, 1, 3, 10 or 30 mg/kg; oral gavage twice a day, end of second week, n=4
Description: Male Zucker diabetic fatty rats (ZDF/GmiCrl-fa/fa) were purchased from Charles River (Raleigh, N.C.) and housed under controlled conditions (12:12 light-dark cycle, 24° C. and 50% relative humidity) with free access to rodent food (Purina 5008, Harlan Teklad, Indianapolis, Ind.). All rats arrived at seven weeks of age (±3 days). After a one-week acclimation period, rats were anesthetized with isoflurane (Abbott Laboratories, IL) and tail-vein blood samples were collected at 9 am without fasting. Blood glucose levels were measured using a glucometer (Bayer, Leverkusen, Germany). In order to ensure balanced treatment groups, ZDF rats were assigned to six treatment groups based upon baseline glucose: vehicle (0.5% HPMC, 0.1% Tween80) and five doses of 264W94 (0.001, 0.01, 0.1, 1, 10 mg/kg). All treatments were given via oral gavage twice a day and animals were followed for two weeks with blood samples collected from tail vein at the end of each week at 9 am without fasting. Fecal samples were collected for 24 hours during the second week of treatment.
Non-esterified fatty acids (NEFA), bile acids, and bile acids in fecal extraction were measured using the Olympus AU640 clinical chemistry analyzer (Beckman Coulter, Irving, Tex.).
Male ZDF rats (n=4) were administered vehicle, SC-435 (1, 10 or 30 mg/kg) or LUM002 (0.3, 1, 3, 10 or 30 mg/kg) by oral gavage twice a day for 2 weeks. Plasma bile acid levels were determined at the end of the second week. […] Data are expressed as mean values±SEM.

With `CCCCC1(CCCC)CS(=O)(=O)c2ccc(N(C)C)cc2[C@@H](c2ccc(OCc3ccc(C[N+]45CCN(CC4)CC5)cc3)cc2)[C@H]1O` [LUM001] the “Inhibition of postprandial serum bile acids AUC (0-240 min) compared to cholestyramine” value ([1]; LUM001 0.02-15 mg/kg vs cholestyramine 200 or 500 mg/kg, single oral doses) was “superior inhibition of postprandial serum bile acids AUC, at a lower dose”, the Serum bile acids ([1]; single oral dose 0.02-15 mg/kg 30 minutes prior to feeding) was “significantly decreased serum bile acids” and the “Mean Daily Total Fecal Bile Acids Excretion” value ([2]; 0.5 mg (n=16), Days 9-14) was 266.8 μmole/24 hr. For the same compound, the “Mean Daily Total Fecal Bile Acids Excretion” value ([2]; 0.5 mg (n=16), Days 23-28) was 294.9 μmole/24 hr, the “Mean Daily Total Fecal Bile Acids Excretion” value ([2]; 1.0 mg (n=8), Days 9-14) was 642.7 μmole/24 hr and the “Mean Daily Total Fecal Bile Acids Excretion” value ([2]; 1.0 mg (n=8), Days 23-28) was 780.3 μmole/24 hr. The “Mean Daily Total Fecal Bile Acids Excretion” value ([2]; 2.5 mg (n=8), Days 9-14) was 478.0 μmole/24 hr, the “Mean Daily Total Fecal Bile Acids Excretion” value ([2]; 2.5 mg (n=8), Days 23-28) was 590.7 μmole/24 hr and the “Mean Daily Total Fecal Bile Acids Excretion” value ([2]; 5 mg (n=8), Days 9-14) was 1105.1 μmole/24 hr. For the same compound, the “Mean Daily Total Fecal Bile Acids Excretion” value ([2]; 5 mg (n=8), Days 23-28) was 848.4 μmole/24 hr, the “Mean Daily Total Fecal Bile Acids Excretion” value ([2]; 5 mg qPM (n=15), Days 9-14) was 496.9 μmole/24 hr and the “Mean Daily Total Fecal Bile Acids Excretion” value ([2]; 5 mg qPM (n=15), Days 23-28) was 593.3 μmole/24 hr. For the same compound, the “Mean Daily Total Fecal Bile Acids Excretion” value ([2]; 10 mg (n=8), Days 9-14) was 1237.0 μmole/24 hr, the “Mean Daily Total Fecal Bile Acids Excretion” value ([2]; 10 mg (n=8), Days 23-28) was 1126.0 μmole/24 hr and the “Mean Daily Total Fecal Bile Acids Excretion” value ([2]; 20 mg (n=16), Days 9-14) was 902.9 μmole/24 hr. For the same compound, the “Mean Daily Total Fecal Bile Acids Excretion” value ([2]; 20 mg (n=16), Days 23-28) was 865.2 μmole/24 hr, the “Mean Daily Total Fecal Bile Acids Excretion” value ([2]; 60 mg (n=8), Days 9-14) was 973.4 μmole/24 hr and the “Mean Daily Total Fecal Bile Acids Excretion” value ([2]; 60 mg (n=8), Days 23-28) was 964.5 μmole/24 hr. The “Mean Daily Total Fecal Bile Acids Excretion” value ([2]; 100 mg (n=8), Days 9-14) was 2405.7 μmole/24 hr, the “Mean Daily Total Fecal Bile Acids Excretion” value ([2]; 100 mg (n=8), Days 23-28) was 1718.3 μmole/24 hr and the Fecal Bile Acids ([2]; healthy adults, multiple oral doses, 28 days) was “significant increase in fecal bile acids”.

In the case of `CCCC[C@]1(CC)CS(=O)(=O)c2ccc(N(C)C)cc2[C@@H](c2cccc(NC(=O)N[C@@H]3O[C@H](COS(=O)(=O)[O-])[C@@H](O)[C@H](OCc4ccccc4)[C@H]3O)c2)[C@H]1O.CCO.O.[K+]` [LUM002, potassium((2R,3R,4S,5R,6R)-4-benzyloxy-6-{3-[3-((3S,4R,5R)-3-butyl-7-dimethylamino-3-ethyl-4-hydroxy-1,1-dioxo-2,3,4,5-tetrahydro-1H-benzo[b]thiepin-5-yl)-phenyl]-ureido}-3,5-dihydroxy-tetrahydro-pyran-2-ylmethyl)sulphate ethanolate, hydrate], the “Plasma bile acid levels” value [3] was “decreased for all doses”.

Reference: US20140271734A1, “BILE ACID RECYCLING INHIBITORS FOR TREATMENT OF BARRETT'S ESOPHAGUS AND GASTROESOPHAGEAL REFLUX DISEASE” (LUMENA PHARMACEUTICALS, INC., priority 2013, published 2014)
